Results taken from patent US20140219995A1, “INHIBITORS OF BACTERIAL TYPE III SECRETION SYSTEM” (priority 2011, published 2014).
Read-outs that look alike come from different tables or passages of the source.

Tests used:
[1] = system: T3SS-mediated secretion of ExoS′-βLA fusion protein, P. aeruginosa strain MDM973; experiment: Effector-β-lactamase (ExoS′-βLA) secretion assay; assay type: cell-based, Pseudomonas aeruginosa; conditions: for IC50: Pseudomonas aeruginosa, read-out: Avg. Secretion IC50
Excerpt: Effector-β-Lactamase (βLA) Secretion Assays.
P. aeruginosa. A gene encoding an ExoS'-β-lactamase (βLA) fusion protein (comprised of 234 codons of P. aeruginosa effector ExoS fused to the TEM-1 β-lactamase gene lacking secretion signal codons) was constructed by splicing by overlap extension PCR (SOE-PCR) (Choi and Schweizer, 2005, BMC Microbiol., 5:30) using primers 5-10 (Table 3, above), sequence confirmed, cloned into lacI^Q-containing GATEWAY® vector pUCP24GW (see Moir, et al., 2007, J Biomol. Screen., 12:855-64) behind the lac promoter, and introduced into P. aeruginosa by electroporation (see Choi, et al., 2006, J. Microbiol. Methods, 64:391-7). Secretion of fusion proteins was detected by measuring the hydrolysis of the chromogenic β-lactamase substrate nitrocefin in clear 96-well microplates in a modification of a previously described assay (Lee, et al., 2007, Infect. Immun., 75:1089-98). Cells of strain MDM973 (PAK/pUCP24GW-exoS:blaM) were sub-cultured in the morning from overnight growths in LBG into 0.1 ml of LBGIE with or without test compounds and grown for 150 min. Nitrocefin (100 μg/ml final) was added, and A490 measurements taken every minute for 15 min in a Victor^3V 1420 Multilabel HTS Counter (PerkinElmer). Slopes were calculated as a relative measure of the quantity of the effector-βLA fusion protein secreted and were absolutely dependent on induction with IPTG, EGTA, and the presence of a functional pscC gene in the P. aeruginosa cells. Typical signal:background ratios were 6-10.

[2] = system: T3SS-mediated cytotoxicity of translocated effector protein ExoU in CHO cells; experiment: Inhibition of P. aeruginosa ExoU-dependent CHO cell killing (translocation, LDH release); assay type: cell-based; conditions: Pseudomonas aeruginosa, read-out: Avg. Translocation IC50
Excerpt: Inhibition of P. aeruginosa ExoU-Dependent CHO Cell Killing.
Pseudolipasin, which acts by direct inhibition of the ExoU phospholipase, was used as control inhibitor (Lee, et al, 2007, Infect. Immun., 75:1089-98).

[3] = Determination of mammalian cytotoxicity (MTS); assay type: cell-based; conditions: human
Protocol: Determination of Mammalian Cytotoxicity.
See, Marshall, et al., 1995, A critical assessment of the use of microculture tetrazolium assays to measure cell growth and function, Growth Regul., 5:69-84. Briefly, 96-well plates were seeded with HeLa cells at a density of 4×10^3 per well in VP-SFM medium without serum (Frazzati-Gallina, et al., 2001, J. Biotechnol., 92:67-72), in the presence or absence of serial dilutions of a compound dissolved in DMSO. Following incubation for 3 days at 37° C. in VP-SFM, cell viability was measured with the vital tetrazolium salt stain 3-(4,5-dimethylthiazol-2-yl)-2,5 diphenyltetrazolium bromide according to the manufacturer's instructions (Promega, Madison, Wis.). Values were determined in duplicate using dilutions of inhibitory compound from 100 μM to 0.2 μM.

[4] = Table 4, HeLa cells, 3 days, dilutions from 100 μM to 0.2 μM, read-out: Avg. CC50

| Structure (SMILES) | IC50 [1] [µM] | IC50 [2] [µM] | CC50 at 3 days [3, 4] [µM] | melting point [°C] | CC50 at 3 days [3] [µM] | IC50 values lower (T3SS secretion inhibition) ([1]; vs. MBX-1641) [%] | effect of structural alteration on T3SS-mediated secretion inhibition ([1]; vs. MBX-1641) |
| --- | --- | --- | --- | --- | --- | --- | --- |
| CC(Oc1ccc(Cl)cc1Cl)C(=O)NC1COc2cc(F)ccc21 (stereo not drawn) [MBX-2589] | 25 | > 100 | 36 | 134 |  |  |  |
| COc1ccc(CNC(=O)C(C)Sc2ccc(Cl)cc2Cl)cc1 (stereo not drawn) [MBX-2163] | 8.3 | 12.2 |  | 89 | > 100 |  |  |
| CC(Oc1ccc(Cl)cc1Cl)C(=O)NCc1ccccc1F (stereo not drawn) [MBX-1962] |  | 8.2 | 32 | 121 |  |  |  |
| CC(Oc1ccc(Cl)cc1Cl)C(=O)NC(c1ccc(F)cc1)C1CC1 (stereo not drawn) [MBX-2614] | 1.5 | 8.4 | 12.8 | 109 |  |  |  |
| CCC(NC(=O)C(C)Oc1ccc(Cl)cc1Cl)c1ccc(F)cc1 (stereo not drawn) [MBX-2608] |  |  | 11 | 95 |  |  |  |
| C[C@@H](Oc1ccc(Cl)cc1Cl)C(=O)N[C@H](C)c1ccc(F)cc1 [MBX-2572] |  | > 100 | > 100 |  |  |  |  |
| CC(Oc1ccc(Cl)cc1Cl)C(=O)NCCc1ccc(F)cc1 (stereo not drawn) [MBX-2588] | 5.5 | 68 | 25 | 129 |  |  |  |
| CC(Oc1ccc(Cl)cc1Cl)C(=O)NC1(c2ccc(F)cc2)CC1 (stereo not drawn) [MBX-2666] | 5.3 |  | 100 | 134 |  |  |  |
| CC(Oc1ccc(Cl)cc1Cl)C(=O)NCc1ccc(F)cn1 (stereo not drawn) [MBX-2623] | 21 |  | 70 | 78 |  |  |  |
| CC(Oc1ccc(Cl)cc1Cl)C(=O)NC(C)c1ccc(F)cc1 (stereo not drawn) [MBX-2221] | 4.6 |  | 32 |  |  | 34 |  |
| CC(Oc1ncc(Cl)cc1Cl)C(=O)NCc1ccc2c(c1)OCO2 (stereo not drawn) [MBX-2155] |  |  | > 100 | 180 |  |  |  |
| CC(Oc1ccc(Cl)cc1Cl)C(=O)NCc1ccc2[nH]ccc2c1 (stereo not drawn) [MBX-2590] | 1.7 |  |  | 91 | 25 |  |  |
| CC(Nc1ccc(Cl)cc1Cl)C(=O)NCc1ccc2c(c1)OCO2 (stereo not drawn) [MBX-2212] | 9.6 | 35.3 |  |  | 80 |  | adverse effect |
| COc1cc(OC)c(OC)cc1CNC(=O)C(C)Oc1ccc(Cl)cc1Cl (stereo not drawn) [MBX-2030] | 74.5 | > 100 |  | 142 |  |  |  |
| CC(Oc1ccc(Cl)cc1Cl)C(=O)NCc1cccc(Cl)c1 (stereo not drawn) [MBX-1957] |  | 5.4 | 72 | 140 |  |  |  |
| CC1Cc2cc(CNC(=O)C(C)Oc3ccc(Cl)cc3Cl)ccc2O1 (stereo not drawn) [MBX-2001] | 14 | 84 |  | 100 |  |  |  |
| CCCCC(NC(=O)C(C)Oc1ccc(Cl)cc1Cl)c1ccc(F)cc1 (stereo not drawn) [MBX-2629] | 4.7 |  | 19 | 100 |  |  |  |
| CC(Oc1ccc(Cl)cc1Cl)C(=O)NCc1ccccc1N(C)C (stereo not drawn) [MBX-1959] | 18.6 | 60 |  | 85 |  |  |  |
| CC(Oc1ccc(Cl)cc1Cl)C(=O)NC(C)c1ccc2c(c1)OCO2 (stereo not drawn) [MBX-2187] | 3.8 | 11 |  | 109 |  |  |  |
| CC(Oc1ccc(Cl)cc1Cl)C(=O)NC1CCCc2cc(F)ccc21 (stereo not drawn) [MBX-2601] | 35 |  |  | 82 | 40 |  |  |

| Structure (SMILES) | IC50 [1] [µM] | IC50 [2] [µM] | CC50 at 3 days [3, 4] [µM] | melting point [°C] | CC50 at 3 days [3] [µM] | IC50 values lower (T3SS secretion inhibition) ([1]; vs. MBX-1641) [%] | effect of structural alteration on T3SS-mediated secretion inhibition ([1]; vs. MBX-1641) |
| --- | --- | --- | --- | --- | --- | --- | --- |
| COc1cccc(CNC(=O)C(C)Oc2ccc(Cl)cc2Cl)c1OC (stereo not drawn) [MBX-1948] | 10.1 | > 100 |  | 130 |  |  |  |
| CCCC(NC(=O)C(C)Oc1ccc(Cl)cc1Cl)c1ccc(F)cc1 (stereo not drawn) [MBX-2628] | 4.3 |  | 14 | 79 |  |  |  |
| COc1ccc(OC)c(CNC(=O)C(C)Oc2ccc(Cl)cc2Cl)c1 (stereo not drawn) [MBX-1947] | 34.8 | > 100 |  | 67 |  |  |  |
| CC(Oc1ccc(Cl)cc1Cl)C(=O)NCc1ccc(F)cc1 (stereo not drawn) [MBX-1642] | 8 | 15 | 41 |  |  |  |  |
| CC(Oc1ccc(Cl)cc1Cl)C(=O)NCc1ccc(Cl)cc1 (stereo not drawn) [MBX-1958] |  | 9.6 | 42 | 115 |  |  |  |
| CC(Oc1ccc(F)cc1Cl)C(=O)NCc1ccc(F)cc1 (stereo not drawn) [MBX-2029] | 52.1 | > 100 |  | 95 |  |  |  |
| CC(Oc1ccc(Cl)cc1Cl)C(=O)NCc1ccccc1 (stereo not drawn) [MBX-1939] |  | 7.5 | 54 | 121 |  |  |  |
| CC(Oc1ccc(Cl)cc1Cl)C(=O)NC(c1ccc(F)cc1)C1CCC1 (stereo not drawn) [MBX-2615] | 2.2 |  | 26 | 103 |  |  |  |
| CC(Oc1ccc(Cl)cc1Cl)C(=O)NC(c1ccc(F)cc1)C(C)C (stereo not drawn) [MBX-2617] | 2.1 |  | 9 | 107 |  |  |  |
| CC(Oc1ccc(Cl)cc1Cl)C(=O)NC(C)(C)c1ccc(F)cc1 (stereo not drawn) [MBX-2616] | 8 |  | 16 | 105 |  |  |  |
| CC(Oc1ccc(Cl)cc1Cl)C(=O)NCc1cccc(F)c1 (stereo not drawn) [MBX-1963] |  | 4.9 | 59 | 106 |  |  |  |
| CC(Oc1ccc(Cl)cc1Cl)C(=O)NCc1ccc(N2CCCC2=O)cc1 (stereo not drawn) [MBX-1987] | 18.8 | 20 |  | 138 |  |  |  |
| Cc1cccc(CNC(=O)C(C)Oc2ccc(Cl)cc2Cl)c1 (stereo not drawn) [MBX-1952] |  | 8 | 32 | 113 |  |  |  |
| CC(Oc1ccc(Cl)cc1Cl)C(=O)NCc1ccc2c(c1)CCCN2C (stereo not drawn) [MBX-2000] | 25.7 | > 100 |  | 119 |  |  |  |
| COc1cc(CNC(=O)C(C)Oc2ccc(Cl)cc2Cl)cc(OC)c1 (stereo not drawn) [MBX-1943] | 18.8 | 23.7 |  | 111 |  |  |  |
| CC(Oc1ccc(Cl)cc1Cl)C(=O)NCc1cc2ccccc2[nH]1 (stereo not drawn) [MBX-2624] |  | 16 | 9 |  |  |  |  |
| COc1ccc(CNC(=O)C(C)Oc2ncc(Cl)cc2Cl)cc1OC (stereo not drawn) [MBX-2156] | 24 | > 100 |  | 156 |  |  |  |
| CC(Oc1ccc(Cl)cc1Cl)C(=O)NCc1ccc2c(c1)OCCCO2 (stereo not drawn) [MBX-1999] | 23.9 | > 100 |  | 115 |  |  |  |
| C[C@H](NC(=O)[C@@H](C)Oc1ccc(Cl)cc1Cl)c1ccc(F)cc1 [MBX-2573] |  | > 100 | > 100 |  |  |  |  |
